We go through eleven molecules from ChEMBL document CHEMBL1201862, “PubChem BioAssay data set” (2004).

Structures are written as SMILES.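 Grown in 96-well plates, cells were treated for 48 hours with each compound at five concentrations. Insufficient inhibition: endpoint recorded as highest concentration tested. Here, GI50 denotes the concentration required for 50% inhibition of growth.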 Calls of active or inactive are those of the source. No stated cut-off is given here; in the data, active = GI50 up to about 1.1 µM and inactive = higher.

Holding throughout (assay): growth of human tumour cells (NCI), 48 h
Assay [1] deals with A498.
Assay [2] concerns UO-31.
Assay [3] concerns SF-295.
The subject of assay [4] is HOP-62.
The subject of assay [5] is SN12C.
For assay [6], the system named is SF-539.
Assay [7] concerns OVCAR-3.
Assay [8] deals with MOLT-4.
Assay [9] has as its system SNB-75.
Assay [10] deals with OVCAR-8.
Assay [11] relates to HOP-92.
Assay [12] has as its system K562.
The test system of assay [13] is HT-29.
Assay [14] deals with UACC-62.
The subject of assay [15] is HL-60.
Assay [16] deals with EKVX.
For assay [17], the system named is COLO 205.
The subject of assay [18] is RPMI-8226.
For assay [19], the system named is NCI-H460.
For assay [20], the system named is RXF 393.

Consider `COc1ccc(CN(CCN(C)C)c2ccccn2)cc1.Cn1c(=O)c2[nH]c(Br)nc2n(C)c1=O`, for which the GI50 in [1], in assay [2], in [3], in assay [4], in [5] and in assay [6] was > 100 µM (inactive) in each case. Further, the GI50 in assay [7] is > 100 µM (inactive); in assay [8], > 100 µM (inactive); in assay [9], 23.3 µM (inactive); in assay [10] it was > 100 µM (inactive); in [11], 22.3 µM (inactive); in assay [12], 94 µM (inactive). Besides, the GI50 in assay [13] is > 100 µM (inactive).
As to `FC(F)(F)c1nc2cc(SSc3cc4nc(C(F)(F)F)[nH]c4cc3Cl)c(Cl)cc2[nH]1`, the GI50 in assay [1], in [3], in [4], in assay [5], in [14] and in assay [6] was > 100 µM (inactive) throughout. Besides, the GI50 in [15] is > 100 µM (inactive); in [7], 45.2 µM (inactive); in [16] it was > 100 µM (inactive); in [8] it was > 100 µM (inactive); in [17], 53.7 µM (inactive); in assay [10], > 100 µM (inactive). Moreover, the GI50 in assay [18], in [12], in [19], in [13] and in [20] was > 100 µM (inactive) throughout.
Regarding `Cc1cc(C)c(C(=O)OC(c2ccccc2)C(c2ccccc2)N2CCOCC2)c(C)c1` (configuration not stated), the GI50 in assay [1], in assay [2], in assay [3], in [4], in [5] and in [14] was > 100 µM (inactive) in each case. Besides, the GI50 in [6] was > 100 µM (inactive); in assay [15], 44.6 µM (inactive); in [7], > 100 µM (inactive); in assay [16] it was > 100 µM (inactive); in [8] it was 93.3 µM (inactive); in assay [17] it was > 100 µM (inactive). Further, the GI50 in assay [9] was > 100 µM (inactive); in assay [18], 6.01 µM (inactive); in [12] it was > 100 µM (inactive); in assay [19] it was > 100 µM (inactive); in assay [13], > 100 µM (inactive); in assay [20], 91 µM (inactive).
As to `CC1(C)OP(=O)(O)C=C1Sc1ccc([N+](=O)[O-])cc1[N+](=O)[O-]`, the GI50 in assay [1], in assay [3], in assay [4], in assay [5], in [14] and in assay [6] was > 100 µM (inactive) in each case. The GI50 in assay [15], in assay [7], in [16], in [17], in [9] and in assay [10] was > 100 µM (inactive) throughout. Besides, the GI50 in [11] was > 100 µM (inactive); in [12] it was > 100 µM (inactive); in assay [19] it was > 100 µM (inactive); in assay [13], 45.7 µM (inactive).
As for `CNC(=S)N/N=C(\C)c1cc(OC)c(OC)cc1O`, the GI50 in assay [1], in assay [2], in [4], in assay [5], in assay [14] and in [6] was > 100 µM (inactive) throughout. The GI50 in assay [15] is 0.0556 µM (active); in assay [7] it was > 100 µM (inactive); in assay [16] it was > 100 µM (inactive); in assay [8] it was > 100 µM (inactive); in assay [17], > 100 µM (inactive); in assay [9] it was > 100 µM (inactive). Also, the GI50 in [10] is > 100 µM (inactive); in assay [18] it was > 100 µM (inactive); in assay [12], 7.29 µM (inactive); in [19] it was > 100 µM (inactive); in assay [13] it was > 100 µM (inactive); in [20] it was > 100 µM (inactive).
Take `Cc1cc(=O)n(-c2cc3cccccc-3n2)[nH]1`: the GI50 in assay [1] was 16.8 µM (inactive); in assay [2] it was 6.35 µM (inactive); in assay [3], 16.7 µM (inactive); in [4], 4.34 µM (inactive); in assay [5], 5.74 µM (inactive); in [14] it was 2.84 µM (inactive). Besides, the GI50 in [6] was 5.47 µM (inactive); in assay [15] it was 3.48 µM (inactive); in [7] it was 3.05 µM (inactive); in assay [16], 12.5 µM (inactive); in [8] it was 4.3 µM (inactive); in assay [17], 14.4 µM (inactive). Moreover, the GI50 is 3.76 µM (inactive) in [9]; 5.53 µM (inactive) in [10]; 8 µM (inactive) in assay [18]; 2.74 µM (inactive) in assay [12]; 3.4 µM (inactive) in [19]; 13.5 µM (inactive) in assay [13]. For the same molecule, the GI50 in assay [20] is 2.36 µM (inactive).
On to `CN(C)C(=S)C(Cl)(c1ccccc1)c1ccccc1`, for which the GI50 in assay [1] is > 100 µM (inactive); in [2], 84.9 µM (inactive); in assay [3], > 100 µM (inactive); in assay [4] it was > 100 µM (inactive); in assay [5], 43.7 µM (inactive); in assay [14] it was > 100 µM (inactive). For the same molecule, the GI50 was 36.6 µM (inactive) in [6]; 22.9 µM (inactive) in [15]; 82 µM (inactive) in assay [7]; 27.8 µM (inactive) in assay [16]; 11.8 µM (inactive) in [8]; 85.7 µM (inactive) in assay [17]. The GI50 in assay [9] is 15.8 µM (inactive); in assay [10] it was 73.8 µM (inactive); in [11], > 100 µM (inactive); in [12], 36.2 µM (inactive); in [19], > 100 µM (inactive); in assay [13] it was 22.6 µM (inactive).
Take `CCCOC(=O)C1C2CCC(O2)C1C(=O)O` (configuration not stated): the GI50 in [1], in assay [2], in [3], in assay [4], in assay [5] and in assay [14] was > 100 µM (inactive) in each case. Also, the GI50 was > 100 µM (inactive) in assay [15]; > 100 µM (inactive) in assay [7]; > 100 µM (inactive) in assay [16]; > 100 µM (inactive) in assay [8]; > 100 µM (inactive) in assay [17]; 36.3 µM (inactive) in assay [9]. The GI50 in assay [10], in [18], in assay [12], in assay [13] and in assay [20] was > 100 µM (inactive) in each case.
Take `CCOC(=O)NC(=O)c1cn(CCOC(=O)NCCCCCCNC(=O)OCCn2cc(C(=O)NC(=O)OCC)c(=O)[nH]c2=O)c(=O)[nH]c1=O`: the GI50 in assay [1], in assay [2], in assay [3], in assay [4], in assay [5] and in assay [14] was > 100 µM (inactive) in each case. Also, the GI50 in assay [15], in assay [7], in assay [16], in [8], in [17] and in assay [9] was > 100 µM (inactive) each time. Moreover, the GI50 in assay [10], in assay [18], in [12], in assay [19], in assay [13] and in assay [20] was > 100 µM (inactive) throughout.
For the molecule `CC1(C)COC(c2c(-c3ccccc3)noc2C[S+]([O-])c2ccccc2)=N1` (configuration not stated), the GI50 was 20.3 µM (inactive) in assay [1]; 29.2 µM (inactive) in assay [2]; 34.6 µM (inactive) in [3]; 31.4 µM (inactive) in [4]; 31.3 µM (inactive) in assay [5]; 20.7 µM (inactive) in assay [14]. The GI50 was 59.6 µM (inactive) in [6]; 23.9 µM (inactive) in assay [15]; > 100 µM (inactive) in [7]; 96.6 µM (inactive) in assay [16]; 22.5 µM (inactive) in assay [8]; 40.4 µM (inactive) in assay [17]. Also, the GI50 in [9] was 29.6 µM (inactive); in [10], 37.3 µM (inactive); in assay [18], 22.1 µM (inactive); in [12] it was 40.9 µM (inactive); in assay [19], 28.3 µM (inactive); in [13], 38.5 µM (inactive). For the same molecule, the GI50 in assay [20] was > 100 µM (inactive).
In the case of `CN1CCc2c1nc(-c1ccc(Cl)cc1)c1c2N(C)CC1`, the GI50 is 19.7 µM (inactive) in assay [1]; 10.7 µM (inactive) in assay [2]; 14.1 µM (inactive) in assay [3]; 11.2 µM (inactive) in assay [4]; 23.1 µM (inactive) in assay [5]; 5.94 µM (inactive) in [14]. In addition, the GI50 in [6] is 15.4 µM (inactive); in [15], 10.7 µM (inactive); in assay [7], 1.51 µM (inactive); in assay [16] it was 35.1 µM (inactive); in assay [8], 6.28 µM (inactive); in assay [17], 2.07 µM (inactive). Further, the GI50 was 29.6 µM (inactive) in assay [9]; 25.5 µM (inactive) in [10]; 9.06 µM (inactive) in assay [18]; 9.29 µM (inactive) in assay [12]; 15.7 µM (inactive) in [19]; 4.56 µM (inactive) in assay [13]. The GI50 in [20] was 10.9 µM (inactive).
